The results in this text go back to US8614201B2 (Janssen Pharmaceutica NV, priority 2009, dated 2013).

Assay [1] addresses T1, Human TRPA1 (Homo sapiens, UniProt O75762). Description: Alternative TRPA1 Ca2+ fluorometry assay (hTRPA1/TREx-HEK293 cells, Fluo-4, FDSS 6000). The assay is classed as cell-based. The arrangement: expressed in transfected cells. Conditions: Fluo-4-AM, agonist 6,11-dihydro-5H-dibenzo[b,e]azepine-10-carboxylic acid methyl ester 25 nM, procedure used for Examples 184, 190 to 192, 194 to 316. Here is the method: In alternative embodiments, the assay was performed using the following procedure for Examples 184, 190 to 192, and 194 to 316:
The human TRPA1 gene was cloned into the pT-Rex-Dest30 inducible vector and stably transfected in T-Rex™-293 cells (Invitrogen, Merelbeke, Belgium). This tetracycline inducible hTRPA1 expression system was used in order to prevent CA^2+ overload in the cultured cells due to sustained TRPA1 expression. hTRPA1/TREx-HEK293 cells (referred to as jTRPA1 cells in the following text) were maintained under standard sterile cell culture conditions. The culture medium for the jTRPA1-HEK cells was DMEN (Gibco BRL, Invitrogen, Merelbeke, Belgium) supplemented with 5 g/l gengticin (Gibco), 5 mL/l blasticidin (Invitorgen), 14.6 g/l L-Glutamine (200 mMl; Gibco), 5 g/l penicillin/streptomycin (5.10-6 IU/I, Gibco), 5.5 g/l pyruvic acid (Gibco) and 10% foetal calf serum (Hyclone, Logan Utah, USA).
For Ca^2+ fluorometry experiments, hTRPA1-HEK cells were resuspended in HBSS seeding medium: HBSS (with CaCl2 and MgCl2: Gibco) supplemented with 14.6 g/l L-Glutamine (200 mM; Gibco), 5 g/l penicillin/streptomycin (5.10-6 IU/l. Gibco), 5.5 g/l pyruvic acid (Gibco) and 10% foetal calf serum (heat inactivated for 30 minutes at 56° C.; Hyclone, Logan Utah, USA). The cells were seeded in poly-D-lysine-coated 384-well round bottom polypropylene plates (Costar Corning, Data Packaging, Cambridge Mass., USA) at 12000 cells/well. Fifty ng/ml tetracycline was added to induce the hTRPA1 expression 24 h before the experiment.
The cells were loaded with 5 mg/l Fluo-4-AM (Molecular Probes, Invitorgen, Merelbeke, Belgium) dissolved in HBSS seeding medium supplemented with 0.7 g/l Probenecid (Sigma) and incubated for 1 h at 37° C. and subsequently at 20° C. for 1 to 2 h. The fluorescence was measured in the FDSS 6000 imaging based plate reader (Hamamutsu Photonics K.K., Hamamutsu City, Japan). The excitation wavelength was 488 nm and the emission wavelength 540 nm. After a control period of 12 seconds the inventive compounds were added and the Ca^2+ signal was measured within 14 minutes after application. Finally, a TRPA1 agonist, 6,11-dihydro-5H-dibenzo[b,e]azepine-10-carboxylic acid methyl ester, was added at a final concentration of 25 nM. The emission ratio was calculated by dividing the emission signal (Em540) by the first EM540 signal of the control period to compensate for the background fluorescence. […] For intracellular Ca^2+ measurements, a compound stock solution (10 to 100 mM) was further diluted in DMSO in order to obtain a final 1% DMSO concentration in the extracellular solution.

Assay [2] has as its target T1, Human TRPA1. Description: Assay 1: In vitro cellular testing of TRPA1 modulation (CHO-TREx, Fluo-3 calcium fluorescence, AITC agonist). In kind it is cell-based. Particulars: CHO-TREx cells expressing human TRPA1; Fluo-3 fluorescence (FLIPR/Tetra); agonist 15 μM allyl isothiocyanate (AITC); 30 minute antagonist incubation. Also noted: expressed in transfected cells; host or cells: CHO-TREx cells (Invitrogen), vector pcDNA4/TO. The method in brief: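 Antagonist potency is the 50% reduction of the AITC (15 μM) calcium response, Hill-fitted against no-antagonist and 10 μM ruthenium red controls. Fluo-3-loaded (4 μM) CHO-TREx cells with tetracycline-inducible human TRPA1 got compound in HEPES saline pH 7.4 for 30 min, usually from 10 μM in three-fold dilutions.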

Molecules are shown by their SMILES.

T1 sequence (O75762 whole entry): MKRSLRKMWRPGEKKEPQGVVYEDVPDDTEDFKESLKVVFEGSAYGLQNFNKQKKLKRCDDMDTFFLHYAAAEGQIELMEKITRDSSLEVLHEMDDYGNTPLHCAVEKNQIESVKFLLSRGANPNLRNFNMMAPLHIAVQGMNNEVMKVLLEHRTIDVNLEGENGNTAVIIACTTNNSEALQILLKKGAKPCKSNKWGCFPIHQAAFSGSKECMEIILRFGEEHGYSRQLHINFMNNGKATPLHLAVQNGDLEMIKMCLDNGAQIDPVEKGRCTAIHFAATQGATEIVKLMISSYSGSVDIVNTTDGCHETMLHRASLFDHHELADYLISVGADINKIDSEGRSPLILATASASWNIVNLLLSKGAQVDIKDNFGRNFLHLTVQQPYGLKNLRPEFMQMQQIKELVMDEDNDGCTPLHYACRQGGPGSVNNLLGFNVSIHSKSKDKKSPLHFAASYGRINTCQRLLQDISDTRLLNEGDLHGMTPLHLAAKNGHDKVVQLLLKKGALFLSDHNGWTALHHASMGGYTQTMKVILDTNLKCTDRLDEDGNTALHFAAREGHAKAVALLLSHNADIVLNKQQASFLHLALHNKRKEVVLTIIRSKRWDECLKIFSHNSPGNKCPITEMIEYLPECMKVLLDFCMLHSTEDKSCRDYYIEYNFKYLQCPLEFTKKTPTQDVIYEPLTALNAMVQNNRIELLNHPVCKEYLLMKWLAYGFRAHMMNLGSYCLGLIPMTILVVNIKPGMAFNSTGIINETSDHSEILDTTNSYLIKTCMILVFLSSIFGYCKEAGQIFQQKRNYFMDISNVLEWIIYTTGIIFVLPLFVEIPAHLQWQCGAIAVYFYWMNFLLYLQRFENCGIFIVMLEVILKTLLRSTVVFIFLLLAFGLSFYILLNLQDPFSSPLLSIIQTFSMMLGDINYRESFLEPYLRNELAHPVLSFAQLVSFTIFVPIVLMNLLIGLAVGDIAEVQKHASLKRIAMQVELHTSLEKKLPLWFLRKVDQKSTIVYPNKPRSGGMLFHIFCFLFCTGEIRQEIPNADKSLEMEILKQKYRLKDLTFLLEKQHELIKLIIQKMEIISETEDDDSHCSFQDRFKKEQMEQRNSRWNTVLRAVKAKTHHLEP

Take `CCOC(=O)C1CCN(c2nc(CNC(=O)[C@@H]3CCCN3S(=O)(=O)c3ccc(F)cc3)cc(-c3ccc(C(F)(F)F)cc3)n2)CC1` (racemic) [Example 194, 1-[4-({[1-(4-Fluoro-benzenesulfonyl)-pyrrolidine-2S-carbonyl]-amino}-methyl)-6-(4-trifluoromethyl-phenyl)-pyrimidin-2-yl]-piperidine-4(R,S)-carboxylic acid ethyl ester]: the IC50 (usually the concentration at which inhibition is half-maximal) at Human TRPA1 [1] amounted to 575 nM.

At Human TRPA1 [1], `O=C(NCc1cc(-c2ccc(C(F)(F)F)cc2)nc(C(F)(F)F)n1)[C@@H]1CCCN1S(=O)(=O)c1ccc(F)cc1` [Example 184, 1-(4-Fluoro-benzenesulfonyl)-pyrrolidine-2S-carboxylic acid [2-trifluoromethyl-6-(4-trifluoromethyl-phenyl)-pyrimidin-4-ylmethyl]-amide] came in with an IC50 of around 33 nM.

Turning to `O=C(NCc1cc(-c2ccc(C(F)(F)F)cc2)nc(N2CCC[C@H]2CO)n1)[C@@H]1CCCN1S(=O)(=O)c1ccc(F)cc1` [Example 190, 1-(4-Fluoro-benzenesulfonyl)-pyrrolidine-2S-carboxylic acid [2-(2S-hydroxymethyl-pyrrolidin-1-yl)-6-(4-trifluoromethyl-phenyl)-pyrimidin-4-ylmethyl]-amide], on Human TRPA1 [1], the IC50 is around 1950 nM.

On Human TRPA1 [1], `O=C(NCc1cc(-c2ccc(C(F)(F)F)cc2)nc(N[C@@H](CO)Cc2ccccc2)n1)[C@@H]1CCCN1S(=O)(=O)c1ccc(F)cc1` [Example 191, 1-(4-Fluoro-benzenesulfonyl)-pyrrolidine-2S-carboxylic acid [2-(1S-hydroxymethyl-2-phenyl-ethylamino)-6-(4-trifluoromethyl-phenyl)-pyrimidin-4-ylmethyl]-amide] returned an IC50 of 2140 nM.

In the case of `O=C(NCc1cc(-c2ccc(C(F)(F)F)cc2)nc(NC2CC2)n1)[C@@H]1CCCN1S(=O)(=O)c1ccc(F)cc1` [Example 192, 1-(4-Fluoro-benzenesulfonyl)-pyrrolidine-2S-carboxylic acid [2-cyclopropylamino-6-(4-trifluoromethyl-phenyl)-pyrimidin-4-ylmethyl]-amide], the IC50 on Human TRPA1 [1] is around 588 nM.

Compound `O=C(NCc1cc(-c2ccc(C(F)(F)F)cc2)nc(NCCc2ccc(Cl)cc2Cl)n1)[C@@H]1CCCN1S(=O)(=O)c1ccc(F)cc1` [Example 195, 1-(4-Fluoro-benzenesulfonyl)-pyrrolidine-2S-carboxylic acid [2-[2-(2,4-dichloro-phenyl)-ethylamino]-6-(4-trifluoromethyl-phenyl)-pyrimidin-4-ylmethyl]-amide] displayed an IC50 at Human TRPA1 [1] of 617 nM.

On to `CN1CCCC1CCNc1nc(CNC(=O)[C@@H]2CCCN2S(=O)(=O)c2ccc(F)cc2)cc(-c2ccc(C(F)(F)F)cc2)n1` (stereo partly drawn) [Example 196, 1-(4-Fluoro-benzenesulfonyl)-pyrrolidine-2S-carboxylic acid [2-[2-(1-methyl-pyrrolidin-2(R,S)-yl)-ethylamino]-6-(4-trifluoromethyl-phenyl)-pyrimidin-4-ylmethyl]-amide], for which the IC50 on Human TRPA1 [1] is around 4790 nM.

The compound `COc1ccc(CCNc2nc(CNC(=O)[C@@H]3CCCN3S(=O)(=O)c3ccc(F)cc3)cc(-c3ccc(C(F)(F)F)cc3)n2)cc1OC` [Example 197, 1-(4-Fluoro-benzenesulfonyl)-pyrrolidine-2S-carboxylic acid [2-[2-(3,4-dimethoxy-phenyl)-ethylamino]-6-(4-trifluoromethyl-phenyl)-pyrimidin-4-ylmethyl]-amide] came in with an IC50 on Human TRPA1 [1] of around 1150 nM.

The compound `CN1CCCN(c2nc(CNC(=O)[C@@H]3CCCN3S(=O)(=O)c3ccc(F)cc3)cc(-c3ccc(C(F)(F)F)cc3)n2)CC1` [Example 198, 1-(4-Fluoro-benzenesulfonyl)-pyrrolidine-2S-carboxylic acid [2-(4-methyl-[1,4]diazepan-1-yl)-6-(4-trifluoromethyl-phenyl)-pyrimidin-4-ylmethyl]-amide] yielded an IC50 on Human TRPA1 [1] of around 3020 nM.

`NS(=O)(=O)c1ccc(CCNc2nc(CNC(=O)[C@@H]3CCCN3S(=O)(=O)c3ccc(F)cc3)cc(-c3ccc(C(F)(F)F)cc3)n2)cc1` [Example 199, 1-(4-Fluoro-benzenesulfonyl)-pyrrolidine-2S-carboxylic acid [2-[2-(4-sulfamoyl-phenyl)-ethylamino]-6-(4-trifluoromethyl-phenyl)-pyrimidin-4-ylmethyl]-amide] returned an IC50 at Human TRPA1 [1] of around 3310 nM.

`C#CCNc1nc(CNC(=O)[C@@H]2CCCN2S(=O)(=O)c2ccc(F)cc2)cc(-c2ccc3c(c2)OCO3)n1` [Example 200, 1-(4-Fluoro-benzenesulfonyl)-pyrrolidine-2S-carboxylic acid (6-benzo[1,3]dioxol-5-yl-2-prop-2-ynylamino-pyrimidin-4-ylmethyl)-amide] registered an IC50 on Human TRPA1 [1] of 3310 nM.

At Human TRPA1 [1], `O=C(NCc1cc(-c2ccc3c(c2)OCO3)nc(NCc2cccnc2)n1)[C@@H]1CCCN1S(=O)(=O)c1ccc(F)cc1` [Example 201, 1-(4-Fluoro-benzenesulfonyl)-pyrrolidine-2S-carboxylic acid {6-benzo[1,3]dioxol-5-yl-2-[(pyridin-3-ylmethyl)-amino]-pyrimidin-4-ylmethyl}-amide] returned an IC50 of 8130 nM.

Consider `CC(Nc1cc(CNC(=O)[C@@H]2C=CCN2S(=O)(=O)c2ccc(F)cc2)cc(-c2ccc(C(F)(F)F)cc2)n1)c1ccncc1` (stereo partly drawn) [Example 412, (2S)-1-[(4-Fluorophenyl)sulfonyl]-N-({2-[(1-pyridin-4-ylethyl)amino]-6-[4-(trifluoromethyl)phenyl]pyridin-4-yl}methyl)-2,5-dihydro-1H-pyrrole-2-carboxamide], for which the IC50 at Human TRPA1 [2] was found to be 1270 nM.

As to `CC(Nc1cc(CNC(=O)[C@@H]2CCCN2S(=O)(=O)c2ccc(F)cc2)cc(-c2ccc(C(F)(F)F)cc2)n1)c1ccccc1` (stereo partly drawn) [Example 413, 1-[(4-Fluorophenyl)sulfonyl]-N-({2-[(1-phenylethyl)amino]-6-[4-(trifluoromethyl)phenyl]pyridin-4-yl}methyl)-L-prolinamide], the IC50 at Human TRPA1 [2] came to 269 nM.

`CC(Nc1cc(CNC(=O)[C@@H]2CCCN2S(=O)(=O)c2ccc(Cl)s2)cc(-c2ccc(C(F)(F)F)cc2)n1)c1ccccc1` (stereo partly drawn) [Example 414, 1-[(5-Chlorothiophen-2-yl)sulfonyl]-N-({2-[(1-phenylethyl)amino]-6-[4-(trifluoromethyl)phenyl]pyridin-4-yl}methyl)-L-prolinamide]: the IC50 on Human TRPA1 [2] was 57 nM.

With `CC(Nc1cc(CNC(=O)[C@@H]2CC(F)(F)CN2S(=O)(=O)c2ccc(Cl)s2)cc(-c2ccc(C(F)(F)F)cc2)n1)c1ccccn1` (stereo partly drawn) [Example 415, 1-[(5-Chlorothiophen-2-yl)sulfonyl]-4,4-difluoro-N-({2-[(1-pyridin-2-ylethyl)amino]-6-[4-(trifluoromethyl)phenyl]pyridin-4-yl}methyl)-L-prolinamide], the IC50 on Human TRPA1 [2] was found to be 570 nM.

Turning to `CC(Nc1cc(CNC(=O)[C@@H]2CC(F)(F)CN2S(=O)(=O)c2ccc(F)cc2)cc(-c2ccc(C(F)(F)F)cc2)n1)c1ccccn1` (stereo partly drawn) [Example 416, 4,4-Difluoro-1-[(4-fluorophenyl)sulfonyl]-N-({2-[(1-pyridin-2-ylethyl)amino]-6-[4-(trifluoromethyl)phenyl]pyridin-4-yl}methyl)-L-prolinamide], on Human TRPA1 [2], the IC50 came to 1060 nM.

On to `CC1CCCN1c1cc(CNC(=O)[C@@H]2C=CCN2S(=O)(=O)c2ccc(Cl)s2)cc(-c2ccc(C(F)(F)F)cc2)n1` (stereo partly drawn) [Example 417, (2S)-1-[(5-Chlorothiophen-2-yl)sulfonyl]-N-({2-(2-methylpyrrolidin-1-yl)-6-[4-(trifluoromethyl)phenyl]pyridin-4-yl}methyl)-2,5-dihydro-1H-pyrrole-2-carboxamide], for which the IC50 at Human TRPA1 [2] was 82 nM.
